Data published in patent publication US7462618B2, “Treatment of inflammatory autoimmune diseases with alpha-adrenergic antagonists and beta-adrenergic agonists” (Sun Health Research Institute, priority 2003, dated 2008).

Experiments:
Lewis rats with AA [1] = assay: Adjuvant-induced arthritis, radiographic scores of hind limbs (Example 1); assay type: in vivo, rat; conditions: i.p. twice a day from day 12; day 28
Procedure: Lewis rats with AA, a model for RA, were used to examine the combined action of the β2-adrenergic receptor agonist terbutaline and the non-specific α-AR antagonist phentolamine. AA was induced in adult male Lewis rats (200-225 gm) by a base of the tail intradermal injection of complete Freund's adjuvant (CFA). The CFA (0.03 g dried and heat killed Mycobacterium butyricum (Difco, Detroit, Mich.) emulsified in 10 ml sterile mineral oil) was prepared by grinding the M. butyricum with a mortar and pestle until the bacterial cell wall turned from a light beige to an eggshell white powder. The mineral oil was then slowly worked into the bacterial cell wall using the mortar and pestle. The suspension was treated with a sonic dismembraner for 5 minutes to ensure that the bacterial cell wall remained suspended in the mineral oil for animal injections. While there was variability in the severity of disease development between the preparations of adjuvant, there was very little variability within individual batches. All animals in each experiment were challenged with the same preparation of adjuvant and 100% of the animals developed arthritis. Phentolamine (an α-adrenergic receptor antagonist) and terbutaline (a β2-adrenergic receptor agonist) were obtained from Sigma Chemical Company (St. Louis, Mo.). Both adrenergic drugs were dissolved in 0.01 mM ascorbic acid in 0.9% sterile, endotoxin-free saline. Adrenergic therapy with phentolamine and/or terbutaline or vehicle was started on day 12 post-immunization, the time of disease onset, and continued until sacrifice. The dose of phentolamine (500 μg/Kg/day) and/or terbutaline (600 μg/day) were administered by intraperitoneal (i.p.) injections twice a day in a total volume of 500 μl per injection. […] X-rays were evaluated using a grading scale modified from Ackerman and coworkers. […] The radiographs were scored for each of the following characteristics: (1) swelling as indicated by the width of soft tissue shadows and alterations in the normal configuration of the soft tissue planes; (2) osteoporosis as measured by bone density (recognized by increases in radiolucency relative to uninvolved adjacent bone); (3) cartilage loss shown by narrowing of the joint spaces; and (4) heterotopic ossification defined as proliferation of new bone tissue (fine ossified line paralleling normal bone but not contiguous with calcified area of the bone itself). The radiographic scores for each category were added for both hind limbs giving a maximum score of 40, and the individual scores for each animal were then averaged within the treatment groups and expressed as a mean±standard error of the mean (SEM), and subjected to Kruskal-Wallis statistical analysis (non-parametric statistic equivalent to an ANOVA; p<0.05) followed by Dunn post-hoc testing. […]

Lewis rats with AA [2] = assay: Adjuvant-induced arthritis, dorsoplantar footpad width (Example 1); assay type: in vivo, rat; conditions: single drug i.p. twice a day from day 12; by day 28 post-adjuvant injection
Procedure: Lewis rats with AA, a model for RA, were used to examine the combined action of the β2-adrenergic receptor agonist terbutaline and the non-specific α-AR antagonist phentolamine. AA was induced in adult male Lewis rats (200-225 gm) by a base of the tail intradermal injection of complete Freund's adjuvant (CFA). The CFA (0.03 g dried and heat killed Mycobacterium butyricum (Difco, Detroit, Mich.) emulsified in 10 ml sterile mineral oil) was prepared by grinding the M. butyricum with a mortar and pestle until the bacterial cell wall turned from a light beige to an eggshell white powder. The mineral oil was then slowly worked into the bacterial cell wall using the mortar and pestle. The suspension was treated with a sonic dismembraner for 5 minutes to ensure that the bacterial cell wall remained suspended in the mineral oil for animal injections. While there was variability in the severity of disease development between the preparations of adjuvant, there was very little variability within individual batches. […] The inflammatory response in the arthritic rats was assessed by routine methods previously described. Dorsoplantar width of the hind feet were measured using a Mitutoyo Corporation dial thickness gauge, beginning the day of CFA-immunization and continued approximately every other day until sacrifice. […]

IL-10/TNFα = assay: Ex vivo IL-10 and TNFα production by cells of treated AA rats (sandwich ELISA); assay type: in vivo, rat; conditions: for Ratio of IL-10/TNFα: cells cultured 24 h, mean ± SEM, N = 6
Source text: To determine if the adrenergic drug treatments were able to modify cytokine patterns in the secondary lymphoid organs and systemically in the blood, pro- and anti-inflammatory cytokine profiles were obtained ex vivo from cells harvested from the draining (inguinal and poplitial) lymph nodes, spleen and the PBMC from the animals described above. All tissue culture media and supplements were obtained from Gibco BRL (Rockville, Md.) unless otherwise stated. OPTIA sandwich ELISA kits for IL-10 and TNFα were purchased from Pharmingen (San Diego, Calif.). The spleen and lymph nodes were aseptically removed from the animal and placed into Hank's balanced salt solution (HBSS). The spleens were placed in a stomacher bag and homogenized for 30 seconds. […] The collected cells were centrifuged and re-suspended in 5 ml of a NH4Cl hypotonic buffer for 3 min to lyse the red blood cells. The cells were washed 2× with 10 ml HBSS, centrifuged and re-suspended into complete RPMI 1640 media supplemented with 5% fetal calf serum and 1% antibiotic/antimycotic. The draining (inguinal and poplitial) lymph nodes were placed into sterile etri dishes containing 5 ml HBSS. […] The homogenates then were passed through a nylon mesh, centrifuged and re-suspended in 5 ml HBSS. The cells then were centrifuged and re-suspended into complete RPMI 1640 media supplemented with 5% fetal calf serum and 1% antibiotic/antimycotic. PBMCs: Blood was collected using cardiac puncture into a 7 ml lithium heparin vaccutainer tubes. The tubes were inverted 7 times and then spun down at 1000 rpm for 15 minutes at 10° C. The buffy coat was removed using a 2 ml pipette and placed into a sterile 15 ml tube containing 10 ml of a NH4Cl hypotonic buffer for 3 min to lyse the red blood cells. The peripheral blood mononuclear cells (PBMC) were centrifuged and re-suspended in 10 ml HBSS. The PBMC were washed three more times with 10 ml HBSS, centrifuged and re-suspended into complete RPMI 1640 media supplemented with 5% fetal calf serum and 1% antibiotic/antimycotic. The prepared cells were counted using a hemocytometer, then brought to the concentration of 2×10^6 cells/ml. Two ml of the cell preparation were plated into 24 well plates (Falcon, Oxnard, Calif.), and in placed in an incubator 7% CO2, 37° C., for 24 h. After 24 h the culture supernatants were harvested and placed in the freezer at -70° C. until ELISA assay. Optia kits for the detection of IL-10 and TNFα were obtained from BD Pharmingen (Los Angeles, Calif.) and sandwich ELISAs were used to measure the amount cytokine released into the culture media. In brief: High binding microtiter 96-well plates were pre-coated with 100 μl of capture antibody in coating buffer (0.1 M carbonate buffer, pH 9.5) for IL-2, IL-4, IFNγ and TNFα and (0.2 M phosphate buffer, pH 6.5) for IL-10. The plates were sealed with plate film (Denville Scientific, South Plainfield, N.J.) and placed at 4° C. overnight. The plates were allowed to come to room temperature and washed with 0.1 M phosphate buffered saline-0.5% Tween 20 (PBS-Tw20). The non-specific binding was blocked using PBS-Tw20 and 1% bovine serum albumin. Standard/sample was then added to each well, the plates were sealed and incubated overnight at 4° C. The plate was washed three times with PBS-Tw20 and biotinylated secondary detection antibody and streptavidin/avidin enzyme conjugate (diluted in PBS-1% bovine serum albumin) were added to the wells and the plates incubated for 1.5 h. The plates were then washed and developed with (TMB) reagent (Pharmingen, San Diego, Calif.) for 30 minutes. After color development the plates were stopped with addition of IN sulfuric acid. Unknown sample cytokine levels were determined through comparison with a standard curve present on each plate using an ELISA reader ([…]: Bio Tek Instruments Incorporated, Winooski, Vt.). […]

[3] = tested on: collagen-induced arthritis; conditions: in vivo; cited from earlier work
Th2 cell clones = conditions: treated before activation; cited from earlier work
Th1 cell clones = conditions: cited from earlier work
[4] = tested on: Th cells cultured with B cell clones; conditions: applied to Th cells before activation, cited from earlier work
[5] = tested on: animals with fully expressed AA; conditions: cited from earlier work

| Compound | Decrease in bone loss compared to vehicle-treated AA rats (Lewis rats with AA [1]) | Radiographic scores compared with vehicle controls (Lewis rats with AA [1]) | Soft tissue swelling (dorsoplantar footpad width) compared with vehicle-treated AA rats (Lewis rats with AA [2]) | Ratio of IL-10/TNFα (IL-10/TNFα; DLN) | Ratio of IL-10/TNFα (IL-10/TNFα; PBL) | Ratio of IL-10/TNFα (IL-10/TNFα; SPL) | Ratio of anti- to pro-inflammatory cytokine production by macrophage cells (IL-10/TNFα; secondary lymphoid organs and peripheral blood) | Severity of collagen-induced arthritis [3] | IL-4 or IL-10 production by Th2 cell clones (Th2 cell clones) | IL-2-dependent T cell proliferation (Th1 cell clones) | IL-2 and IFNγ production by Th1 cell clones (Th1 cell clones; treated before activation with antigen-specific B cells or anti-CD3 antibodies) | IgG2a production ([4]; blockable by nadolol or IFNγ) | IgG1 production [4] | Joint inflammation and destruction [5] |
| --- | --- | --- | --- | --- | --- | --- | --- | --- | --- | --- | --- | --- | --- | --- |
| Cc1ccc(N(CC2=NCCN2)c2cccc(O)c2)cc1 [Phentolamine] | 51% | significantly reduced | significantly decreased | 1.0960 ± 0.1961 | 0.8067 ± 0.1762 | 3.3350 ± 0.6716 | increase | – | – | – | – | – | – | – |
| CC(C)(C)NCC(O)c1ccc(O)c(CO)c1 (centres unmarked) [salbutamol] | – | – | – | – | – | – | – | reduces the severity | – | – | – | – | – | – |
| CC(C)(C)NCC(O)c1cc(O)cc(O)c1 (centres unmarked) [Terbutaline, terbutaline] | ~50% | significantly reduced | significantly decreased | 1.5060 ± 0.1642 | 0.4382 ± 0.0471 | 2.1370 ± 0.8285 | – | – | does not affect | reduced | inhibits | inhibited | not | – |
| O=P(O)(O)C(Cl)(Cl)P(=O)(O)O [clodronate] | – | – | – | – | – | – | – | – | – | – | – | – | – | significantly reduced |
